Experimental data taken from ChEMBL document CHEMBL3244027, “Syntheses, analgetic activity, and physical dependence capacity of 5-phenyl-6,7-benzomorphan derivatives” (J Med Chem, 1979).
Calls of active or inactive are those of the source. No cut-off for these calls is given here.

How the values were obtained:
[1] = system: Mus musculus; assay: Analgetic activity in sc dosed CF1S mouse assessed as writhing by phenylquinone writhing test; format: functional
[2] = system: Mus musculus; assay: Analgetic activity against CF-1 mouse assessed as increase in reaction time at 320 mg/kg, po by heat stimulus induced tail flick response assay; format: functional, organism-based; parameters: dose 320 mg/kg
[3] = system: Mus musculus; assay: Analgetic activity in po dosed CF1S mouse assessed as writhing by phenylquinone writhing test; format: functional; conditions: Mus musculus, CF1S, po; read-out: ED50
[4] = Mus musculus, CF1S, sc, read-out: ED50

Row | Structure (SMILES) | ED50 [1, 4] [mg/kg] | further results
1 | Br.CC1C2Cc3ccc(O)cc3C1(c1ccccc1)CCN2CC(=O)c1ccccc1 (configuration not stated) | > 100 | 
2 | Oc1ccc2c(c1)C1(c3ccccc3)CCNC(C2)C1 (configuration not stated) |  | Activity [2]: inactive
3 | C=CCN1CCC2(c3ccccc3)c3cc(O)ccc3CC1C2C.CCCO.Cl (configuration not stated) | > 100 | 
4 | C=C(Br)CN1CCC2(c3ccccc3)CC1Cc1ccc(O)cc12 (racemic) | > 100 | 
5 | C#CCN1CCC2(c3ccccc3)c3cc(OC)ccc3CC1C2C (configuration not stated) | > 100 | 
6 | CS(=O)(=O)O.c1ccc(CCN2CCC3(c4ccccc4)CC2Cc2ccccc23)cc1 (configuration not stated) | > 100 | 
7 | CC1C2Cc3ccc(O)cc3C1(c1ccccc1)CCN2C(=O)C12CC3CC(CC(C3)C1)C2.O (configuration not stated) |  | ED50 [3]: > 100 mg/kg
8 | Oc1ccc2c(c1)C1(c3ccccc3)CCN(CCc3cccs3)C(C2)C1 (racemic) |  | Activity [2]: inactive
9 | Oc1ccc2c(c1)C1(c3ccccc3)CCNC(C2)C1 (racemic) | > 100 | 
10 | CC(=O)CCN1CCC2(c3ccccc3)c3cc(O)ccc3CC1[C@H]2C.CS(=O)(=O)O (some centres not stated) |  | ED50 [3]: > 100 mg/kg
11 | Oc1ccc2c(c1)C1(c3ccccc3)CCN(CCCCc3ccccc3)C(C2)C1 (racemic) |  | Activity [2]: inactive; ED50 [3]: > 100 mg/kg
12 | Cl.O=C(CCCN1CCC2(c3ccccc3)CC1Cc1ccccc12)c1ccc(F)cc1 (racemic) |  | ED50 [3]: > 150 mg/kg
13 | CN1CCC2(c3ccccc3)CC1Cc1ccc(O)cc12.Cl (stereo in doubt; 43) | 5.5 | 
14 | CN1CCC2(c3ccccc3)CC1Cc1ccccc12.O=C(O)C(O)C(O)C(=O)O (stereo in doubt; 36) | 5.5 | 
15 | CC(C)=CCN1CCC2(c3ccccc3)c3cc(O)ccc3CC1C2C.Cl (stereo in doubt; 207) | 39 | 
16 | C[C@@H]1C2Cc3ccc(O)cc3C1(c1ccccc1)CCN2CCC(O)(c1ccccc1)c1ccccc1 (some centres not stated) | > 100 | Activity [2]: inactive
17 | CC1C2Cc3ccc(O)cc3C1(c1ccccc1)CCN2C/C=C/Cl (configuration not stated) | > 100 | Activity [2]: inactive
18 | CC1C2Cc3ccc(O)cc3C1(c1ccccc1)CCN2CCc1cccs1.Cl.O (configuration not stated) | > 100 | ED50 [3]: > 100 mg/kg
19 | CC1C2Cc3ccc(O)cc3C1(c1ccccc1)CCN2CCO (racemic) | 44 | ED50 [3]: > 100 mg/kg
20 | CC1C2Cc3ccc(OC(=O)c4ccc([N+](=O)[O-])cc4)cc3C1(c1ccccc1)CCN2C (configuration not stated) | 0.6 | 
21 | CCCCCN1CCC2(c3ccccc3)c3cc(O)ccc3CC1C2C (configuration not stated) |  | ED50 [3]: > 100 mg/kg

Row | Structure (SMILES) | ED50 [1, 4] [mg/kg] | further results
22 | CC1C2Cc3ccc(O)cc3C1(c1ccccc1)CCN2C (configuration not stated) | 4.2 | 
23 | C[C@@H]1C2Cc3ccc(O)cc3C1(c1ccccc1)CCN2CC(=O)O (some centres not stated) | > 100 | 
24 | C/C(Cl)=C/CN1CCC2(c3ccccc3)CC1Cc1ccc(O)cc12 (racemic) | > 100 | 
25 | CC1C2Cc3ccc(O)cc3C1(c1ccccc1)CCN2C(=O)C1CC1 (configuration not stated) | > 100 | Activity [2]: inactive
26 | Cc1ccc(S(=O)(=O)Oc2ccc3c(c2)C2(c4ccccc4)CCN(C)C(C3)C2C)cc1.Cl (configuration not stated) | > 100 | 
27 | C#CCN1CCC2(c3ccccc3)CC1Cc1ccc(OC(=O)c3ccccc3)cc12 (racemic) | > 100 | 
28 | C=CCN1CCC2(c3ccccc3)CC1Cc1ccc(O)cc12 (stereo in doubt; 146) |  | ED50 [1]: >30 mg/kg
29 | CC1C2Cc3ccc(O)cc3C1(c1ccccc1)CCN2C1CCCC1.Cl (configuration not stated) | 120 | 
30 | CC(O)C(=O)O.CC1C2Cc3ccc(O)cc3C1(c1ccccc1)CCN2C/C=C/c1cccs1 (configuration not stated) |  | Activity [2]: inactive; ED50 [3]: > 100 mg/kg
31 | Cl.Oc1ccc2c(c1)C1(c3ccccc3)CCN(CCc3ccccc3)C(C2)C1 (configuration not stated) | 7.4 | 
32 | CC1C2Cc3ccc(O)cc3C1(c1ccccc1)CCN2CCCN(C)C (configuration not stated) | > 120 | 
33 | CCCCC(=O)Oc1ccc2c(c1)C1(c3ccccc3)CCN(CC3CCC3)C(C2)C1.Cl (racemic) |  | ED50 [3]: > 100 mg/kg
34 | Oc1ccc2c(c1)C1(c3ccccc3)CCN(C/C=C/c3ccccc3)C(C2)C1 (racemic) |  | Activity [2]: Active
35 | COc1ccc2c(c1)C1(c3ccccc3)CCN(C)C(C2)C1.Cl.O (configuration not stated) | 16 | 
36 | C=CCN1CCC2(c3ccccc3)CC1Cc1ccc(O)cc12 (stereo in doubt; 143) |  | ED50 [1]: >80 mg/kg
37 | C[C@@H]1C2Cc3ccc(O)cc3C1(c1ccccc1)CCN2C (some centres not stated) | 0.5 | 
38 | CC1C2Cc3ccc(O)cc3C1(c1ccccc1)CCN2CCN1CCOCC1 (configuration not stated) | > 100 | Activity [2]: inactive; ED50 [3]: > 100 mg/kg
39 | COc1ccc2c(c1)C1(c3ccccc3)CCN(CC3CCC3)C(C2)C1.Cl.O (racemic) |  | ED50 [3]: > 100 mg/kg
40 | CCCCCCCCCCN1CCC2(c3ccccc3)c3cc(O)ccc3CC1C2C.Cl (configuration not stated) | 70 | Activity [2]: inactive; ED50 [3]: > 100 mg/kg
41 | COc1ccc2c(c1)C1(c3ccccc3)CCN(C)C(C2)C1 (racemic) | 14 | 
